Data taken from patent US20120082727A1, “USE OF MAGNESIUM STEARATE IN DRY POWDER FORMULATIONS FOR INHALATION” (CHIESI FARMACEUTICI S.p.A., priority 2010, published 2012).

Test: Chemical stability of dry powder formulations on storage in glass vials, residual test compound and hydrolysis product by UPLC
Type: physicochemical
Conditions: 25 °C, 60% rel. humidity; for CHF 5551.02 values (%): hydrolysis degradation product
Experimental: Dry powder formulations were prepared comprising as a carrier either particles of alpha-lactose monohydrate 212-355 microns alone (coarse) or coated with magnesium stearate (coated). Said coated particles were obtained by mixing alpha-lactose monohydrate with 1% magnesium stearate in a Turbula mixer for 4 hours.
Samples of the manufactured mixtures were filled in glass vials and stored under stressing conditions ([…]) in comparison to a sample stored under long tem conditions (25 ° C., 60% relative humidity).
The percentage amount of residual test compound and of the degradation product due to hydrolysis, (R)-1-hydroxy-(2-oxo-2-thiophen-2-yl-ethyl)-1-azonia-bicyclo[2.2.2]octane; chloride quoted as CHF 5551.02, was determined in the two formulations by ultra performance liquid chromatography (UPLC) in comparison to the active ingredient without the carrier (API). The variation of CHF 5551.2 content with the time is also plotted in FIG. 3.

O=C(OC(c1cccc(F)c1)c1cccc(F)c1)O[C@H]1C[N+]2(CC(=O)c3cccs3)CCC1CC2.[Cl-] [Test compound, (R)-3-[bis-(3-fluoro-phenyl)-methoxycarbonyloxy]-1-(2-oxo-2-thiophen-2-yl-ethyl)-1-azonia-bicyclo[2.2.2]octane; chloride]
Test compound values (%) (0 days): 100.0%
Test compound values (%) (2 days): 99.9%
Test compound values (%) (4 days): 99.9%
Test compound values (%) (7 days): 99.9%
Test compound values (%) (9 days): 99.9%
Test compound values (%) (11 days): 99.9%
Test compound values (%) (14 days): 100.0%
CHF 5551.02 values (%) (0 days): 0.08%
CHF 5551.02 values (%) (2 days): 0.20%
CHF 5551.02 values (%) (4 days): 0.29%
CHF 5551.02 values (%) (7 days): 0.24%
CHF 5551.02 values (%) (9 days): 0.28%
CHF 5551.02 values (%) (11 days): 0.29%
CHF 5551.02 values (%) (14 days): 0.23%
